According to the NIST ThermoML archive (doi:10.1016/j.jct.2015.04.005):

Assay: xn = mol fraction of the nth substance listed
Settings: 102.24 kPa, Liquid; for speed of sound: Frequency=5 MHz, Single path-length method; for mass density: Vibrating tube method

CCC(=O)[O-].C[NH2+]CCO [2-hydroxy-N-methylethanaminium propionate] + O
Settings | mass density [kg/m3] | speed of sound [m/s]
298.15 K, x1 = 0.02 | 1016.8 | 1628.3
298.15 K, x1 = 0.0501 | 1039.1 | 1746.5
298.15 K, x1 = 0.1001 | 1056.2 | 1820.9
298.15 K, x1 = 0.101 | 1055.8 | 1818.1
298.15 K, x1 = 0.2006 | 1072.5 | 1827.2
298.15 K, x1 = 0.301 | 1072.6 | 1790.1
298.15 K, x1 = 0.3978 | 1074 | 1757
298.15 K, x1 = 0.4976 | 1072.3 | 1726.2
298.15 K, x1 = 0.5972 | 1071.9 | 1721
298.15 K, x1 = 0.8006 | 1068.7 | 1684.5
298.15 K, x1 = 1 | 1065.8 | 1638.4
303.15 K, x1 = 0.02 | 1013.4 | 1630.6
303.15 K, x1 = 0.0501 | 1036.3 | 1741.6
303.15 K, x1 = 0.1001 | 1053.4 | 1810.8
303.15 K, x1 = 0.101 | 1052.8 | 1807
303.15 K, x1 = 0.2006 | 1069.5 | 1812.4
303.15 K, x1 = 0.301 | 1069.5 | 1775.9
303.15 K, x1 = 0.3978 | 1070.9 | 1742.3
303.15 K, x1 = 0.4976 | 1069.2 | 1711
303.15 K, x1 = 0.5972 | 1068.7 | 1705.5
303.15 K, x1 = 0.8006 | 1065.4 | 1668.3
303.15 K, x1 = 1 | 1062.6 | 1624.6
308.15 K, x1 = 0.02 | 1010 | 1632.8
308.15 K, x1 = 0.0501 | 1033.5 | 1736.7
308.15 K, x1 = 0.1001 | 1050.7 | 1800.7
308.15 K, x1 = 0.101 | 1049.9 | 1795.9
308.15 K, x1 = 0.2006 | 1066.5 | 1797.6
308.15 K, x1 = 0.301 | 1066.4 | 1761.6
308.15 K, x1 = 0.3978 | 1067.9 | 1727.6
308.15 K, x1 = 0.4976 | 1066.1 | 1695.7
308.15 K, x1 = 0.5972 | 1065.6 | 1689.9
308.15 K, x1 = 0.8006 | 1062.2 | 1652
308.15 K, x1 = 1 | 1059.4 | 1607
313.15 K, x1 = 0.02 | 1006.6 | 1635.1
313.15 K, x1 = 0.0501 | 1030.6 | 1731.8
313.15 K, x1 = 0.1001 | 1047.9 | 1790.6
313.15 K, x1 = 0.101 | 1046.9 | 1784.7
313.15 K, x1 = 0.2006 | 1063.5 | 1782.8
313.15 K, x1 = 0.301 | 1063.3 | 1747.4
313.15 K, x1 = 0.3978 | 1064.8 | 1712.8
313.15 K, x1 = 0.4976 | 1063 | 1680.5
313.15 K, x1 = 0.5972 | 1062.5 | 1674.4
313.15 K, x1 = 0.8006 | 1059 | 1635.7
313.15 K, x1 = 1 | 1056.2 | 1588.5
318.15 K, x1 = 0.02 | 1003.2 | 1637.4
318.15 K, x1 = 0.0501 | 1027.8 | 1726.9
318.15 K, x1 = 0.1001 | 1045.2 | 1780.5
318.15 K, x1 = 0.101 | 1043.9 | 1773.6
318.15 K, x1 = 0.2006 | 1060.5 | 1768
318.15 K, x1 = 0.301 | 1060.2 | 1733.1
318.15 K, x1 = 0.3978 | 1061.8 | 1698.1
318.15 K, x1 = 0.4976 | 1059.8 | 1665.2
318.15 K, x1 = 0.5972 | 1059.4 | 1658.8
318.15 K, x1 = 0.8006 | 1055.8 | 1619.5
318.15 K, x1 = 1 | 1053 | 1573.2
323.15 K, x1 = 0.02 | 999.8 | 1639.6
323.15 K, x1 = 0.0501 | 1025 | 1722
323.15 K, x1 = 0.1001 | 1042.4 | 1770.4
323.15 K, x1 = 0.101 | 1040.9 | 1762.5
323.15 K, x1 = 0.2006 | 1057.5 | 1753.2
323.15 K, x1 = 0.301 | 1057.1 | 1718.9
323.15 K, x1 = 0.3978 | 1058.7 | 1683.3
323.15 K, x1 = 0.4976 | 1056.7 | 1650
323.15 K, x1 = 0.5972 | 1056.2 | 1643.3
323.15 K, x1 = 0.8006 | 1052.6 | 1603.2
323.15 K, x1 = 1 | 1049.8 | 1558.3
328.15 K, x1 = 0.02 | 996.4 | 1641.9
328.15 K, x1 = 0.0501 | 1022.2 | 1717.1
328.15 K, x1 = 0.1001 | 1039.7 | 1760.3
328.15 K, x1 = 0.101 | 1037.9 | 1751.4
328.15 K, x1 = 0.2006 | 1054.5 | 1738.3
328.15 K, x1 = 0.301 | 1054 | 1704.6
328.15 K, x1 = 0.3978 | 1055.6 | 1668.6
328.15 K, x1 = 0.4976 | 1053.6 | 1634.8
328.15 K, x1 = 0.5972 | 1053.1 | 1627.8
328.15 K, x1 = 0.8006 | 1049.3 | 1587
328.15 K, x1 = 1 | 1046.5 | 1543.7
333.15 K, x1 = 0.02 | 993 | 1644.1
333.15 K, x1 = 0.0501 | 1019.4 | 1712.2
333.15 K, x1 = 0.1001 | 1036.9 | 1750.3
333.15 K, x1 = 0.101 | 1035 | 1740.3
333.15 K, x1 = 0.2006 | 1051.5 | 1723.5
333.15 K, x1 = 0.301 | 1051 | 1690.4
333.15 K, x1 = 0.3978 | 1052.6 | 1653.9
333.15 K, x1 = 0.4976 | 1050.5 | 1619.5
333.15 K, x1 = 0.5972 | 1050 | 1612.2
333.15 K, x1 = 0.8006 | 1046.1 | 1570.7
333.15 K, x1 = 1 | 1043.2 | 1527
